Reference: paper PMC5372468, “Quantitative analysis of molecular partition towards lipid membranes using surface plasmon resonance” (Scientific Reports, 2017)
Values joined by “and” are separate entries in the source; they are usually repeats but may differ in a detail not shown here. Equal values may be shown once. Read-outs that look alike come from different tables or passages of the source.

Columns and labels:
[1] = SPR membrane partition on L1 sensor chip, deposited POPC SUV (steady-state and dissociation models); format: physicochemical; settings: 10 mM HEPES, 150 mM NaCl, pH 7.4, 25 °C; for Kp (Steady-state Model) / σ (molar lipid:solute ratio at membrane saturation, Steady-state Model): SPR Biacore X100, L1 chip, association 200 s at 5 μL/min, ±SD, three independent replicates; for Kp (Steady-state Model): POPC SUV (50 nm extrusion), 0.25-700 μM solute, equation (S22) fitted to RUS/RUL vs [S]W, full concentration range; for σ (molar lipid:solute ratio at membrane saturation, Steady-state Model) / Kp (linear partition model, equation (S23)): POPC SUV; for σ (molar lipid:solute ratio at membrane saturation, Steady-state Model): equation (S22); for Kp (linear partition model, equation (S23)): SPR, L1 chip, equation (S23) fitted to the low-concentration linear region only
Experimental: Lyophilized ENF and KTP were solubilized in 10 mM HEPES, 150 mM NaCl, pH 7.4 buffer to a 1 mg/mL stock solution concentration. Purified F63 stock solutions (~1 mg/mL) were prepared in the same buffer. Lyophilized HRC4 was first solubilized in DMSO to 40 mg/mL, then diluted in 10 mM HEPES, 150 mM NaCl, pH 7.4 buffer for the experiments. The final DMSO content was maintained at 2% (v/v) in all HRC4 experiments. ENF, KTP and HRC4 stock solutions were sonicated in an ultrasonic bath for a 10 min period.
Small unilamellar vesicles (SUV) suspensions were prepared as described before. Briefly, the lipid mixture was dissolved in chloroform in a round bottom flask. Chloroform was evaporated under a constant nitrogen flow. The resulting lipid film was dried in vacuum, overnight. A multilamellar vesicle suspension (MLV) was obtained after lipid film rehydration with 10 mM HEPES, 150 mM NaCl, pH 7.4 buffer and a series of 10 freeze/thaw cycles. MLV suspensions were extruded through a 50 nm track-etched polycarbonate membrane from Whatman/GE Healthcare (Maidstone, United Kingdom). Extrusion was performed in a LiposoFast-Basic plus Stabilizer setup from Avestin (Mannheim, Germany). POPC, POPC:Chol (2:1), POPC:Chol:SM […] and POPC:DPPC (1:1) mixtures were prepared. SUV hydrodynamic diameter (DH) and sample polydispersity were characterized through dynamic light scattering (DLS, Supplementary Fig. S1).
SPR experiments were carried out in a Biacore X100 apparatus from GE Healthcare. Temperature was set at 25 °C for all experiments. A 10 mM HEPES, 150 mM NaCl, pH 7.4 solution was used as running buffer for F63, ENF and KTP experiments. Alternatively, 10 mM HEPES, 150 mM NaCl, pH 7.4 containing 2% (v/v) DMSO was used for HRC4 experiments. The flow system was primed three times before initiating an experiment. The L1 sensor chip was used in all experiments. The sensor chip surface was rinsed with three injections of 20 mM CHAPS before SUV deposition. 1 mM lipid SUV samples were injected over the L1 sensor chip for 2400 s, at a 2 μL/min flow speed. Typical RU values for POPC, POPC:Chol (2:1), and POPC:Chol:SM (1:1:1) SUV depositions were ~8000, ~10000 and ~10500, respectively. Loose vesicles were removed with a 36 s injection of 10 mM NaOH at 50 μL/min. F63, ENF and KTP at defined concentrations (between 0.25 and 700 μM) were injected over pre-formed lipid vesicle-coated surfaces at 5 μL/min, for a total of 200 s (association phase). Samples were also injected at 30 μL/min to confirm the absence of mass transfer effects. Solutes were allowed to dissociate for 800 s. L1 sensor chip surface regeneration was performed with sequential injections of 20 mM CHAPS (5 μL/min for 60 s), 0.5% (w/v) SDS (5 μL/min for 60 s), 10 mM NaOH containing 20% (v/v) methanol (50 μL/min for 36 s) and 10 mM NaOH (50 μL/min for 36 s). Baseline response values were compared before and after each experiment to evaluate the effectiveness of the surface regeneration.
Raw SPR sensorgram data were collected for both lipid deposition and solute binding. SUV deposition response values were collected from sensorgrams upon reaching a stable response. For each studied molecule, association steady-state response values were collected from individual sensorgrams at t = 200 s. Dissociation response data were collected between 200 and 1000 s of each sensorgram.
The steady-state model is a mathematical approach to rigorously quantify solute membrane partition using current SPR lipid bilayer-solute association response data. The partition formalism of equation (S22), can be directly fitted to RUS/RUL vs [S]W data sets to retrieve Kp and σ values. While σ values are very important for specific applications (membrane-targeting antibiotics, for instance[25]), Kp is a fundamental membrane interaction parameter studied for both endogenous and therapeutic molecules. […]

[2] = partition constant towards POPC membranes, fluorescence spectroscopy, 100 nm-diameter LUV, ±SD, cited from earlier work
[3] = data previously obtained; ref [25]; cited from earlier work
Excerpt: If only Kp is desired, a simplified version of the steady-state model (equation (S23)) can be applied to the linear region in each partition plot (Fig. 2, right panel insets). We applied the steady-state model in full to determine σ for each molecule in addition to Kp. […] The σ of ENF and KTP were, respectively, 50 and 69.

For N=C(N)NCCC[C@H](NC(=O)[C@@H](N)Cc1ccc(O)cc1)C(=O)O [KTP, kyotorphin], the “Kp (Steady-state Model)” value [1] was 0.10 × 10^3 and 0.10 (±0.01) × 10^3, the “σ (molar lipid:solute ratio at membrane saturation, Steady-state Model)” value [1] was ~69 and 69 and 69.0 (±6.3) and the “Kp (linear partition model, equation (S23))” value [1] was 0.06 × 10^3. The “Kp (Literature)” value ([2]; ref [27]) was 0.66 × 10^3 and 0.66 (±0.23) × 10^3.

For omiganan, the “σ (lipid:solute ratio at membrane saturation)” value [3] is given as 66.

For Enfuvirtide, the “Kp (Steady-state Model)” value [1] was 6.41 × 10^3 and 6.41 (±0.50) × 10^3, the “σ (molar lipid:solute ratio at membrane saturation, Steady-state Model)” value [1] was ~50 and 50 and 50.4 (±2.0) and the “Kp (linear partition model, equation (S23))” value [1] was 5.29 × 10^3. The “Kp (Literature)” value ([2]; ref [26]) was 3.20 × 10^3 and 3.20 (±0.20) × 10^3.
